Patent publication US20230087118A1, “IMIDAZO[1,2-a][sequence] DERIVATIVES AND THEIR USE IN THE TREATMENT OF DISEASE” (priority 2019, published 2023)

What follows are molecules tested against T1, IRAK4 (Homo sapiens, UniProt Q9NWZ3) (assay: biochemical). Conditions: not given.
T1 sequence (Q9NWZ3 1-460): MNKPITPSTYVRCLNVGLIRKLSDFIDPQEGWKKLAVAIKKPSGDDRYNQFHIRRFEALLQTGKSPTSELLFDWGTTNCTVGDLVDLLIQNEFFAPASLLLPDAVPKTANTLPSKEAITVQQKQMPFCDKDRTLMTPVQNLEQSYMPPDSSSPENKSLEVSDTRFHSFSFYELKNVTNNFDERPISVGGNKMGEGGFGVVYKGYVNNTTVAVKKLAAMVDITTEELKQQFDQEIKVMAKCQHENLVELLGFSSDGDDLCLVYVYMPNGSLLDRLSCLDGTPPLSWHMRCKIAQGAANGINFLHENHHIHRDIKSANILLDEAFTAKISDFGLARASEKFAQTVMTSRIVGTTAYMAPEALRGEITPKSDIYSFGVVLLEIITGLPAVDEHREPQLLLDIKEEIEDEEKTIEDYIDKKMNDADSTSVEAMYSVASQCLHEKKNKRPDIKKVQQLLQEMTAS

IC50 | Structure (SMILES)
0.0017 µM | CCOc1cc2nc(C[C@H]3CCOC3)cn2cc1C(=O)Nc1cccc(C(F)F)n1 (single isomer, unassigned) [Example 64]
0.0085 µM | COc1cccc(NC(=O)c2cn3cc(C4CCOCC4)nc3cc2OC)n1 [Example 21]
0.018 µM | COc1cccc(NC(=O)c2cn3cc(C4C5COCC54)nc3cc2OC)n1 (stereo not shown) [Example 22]

Same assay, conditions: IRAK4 Biochemical Assay (1 mM ATP, 2 h) IC50 (μM), 1 mM ATP, 2 h, 100 pM IRAK4

IC50 | Structure (SMILES)
0.0263 µM | COc1cccc(NC(=O)c2cn3cc(C4CC(OC)C4)nc3cc2OC)n1 (stereo not shown) [Example 8]
0.0242 µM | COc1cccc(NC(=O)c2cn3cc(C4CC45CCCCO5)nc3cc2OC)n1 (stereo not shown) [Example 9]
0.0293 µM | COc1cccc(NC(=O)c2cn3cc(CC4CCOCC4)nc3cc2OC)n1 [Example 10]
0.0034 µM | COc1cccc(NC(=O)c2cn3cc(C4CC5(CCOC5)C4)nc3cc2OC)n1 (stereo not shown) [Example 11]

What follows are molecules tested against T1, IRAK4 (assay: 2-hour 10 μM ATP Biochemical Assay (MesoScale Detection format; IRAK4 phosphorylation of biotin labeled IRAK1 activation loop peptide)). Conditions: 0.1 nM IRAK4.
Procedure: Compounds of the invention were assessed for their ability to inhibit IRAK4 activity. The inhibitory properties of the compounds of the invention described herein can be evidenced by testing in any one of the following assays.
The 2-hour 10 μM ATP Biochemical Assay employs a MesoScale Detection (MSD) format. The kinase reaction is based on the IRAK4 phosphorylation of a biotin labeled peptide (IRAK1 activation loop sequence 360-389).
The kinase reaction in 30 μl is carried out in wells of a 384 well polypropylene assay plate, with 0.1 nM IRAK4, 1.6 μM of biotinylated peptide substrate and 10 μM ATP in 50 mM Hepes, pH 7.5, 60 mM NaCl, 5 mM MgCl2, 0.25 mM MnCl2, 2 mM DTT, 0.01% BSA, and 1% DMSO (from compound DMSO stocks), for 2 hour at room temperature. The activity is quenched with 11 μl of 70 mM EDTA, pH 8.
To detect the phosphorylated biotinylated peptide substrate, 30 μl of the quenched reaction mixture is added to equivalent wells of a 384 well streptavidin coated MesoScale plate (Meso Scale Discovery #L21SA-1). After a 1 hour incubation of the plate for 1 hour at room temperature with gentle mixing, the plate wells are washed 3 times with 50 mM Tris, pH 7.5, 150 mM NaCl, 0.02% Tween-20.
A 25 μl volume of 1:500 anti-P-Threonine Rabbit polyclonal Antibody plus 1:500 Goat-anti-Rabbit Sulfo Tag Antibody (Meso Scale Discovery R32AB-1) in 50 mM Tris, pH 7.5, 150 mM NaCl, 0.02% Tween-20 plus 2% BSA is then added to each well. After a 1-hour incubation of the plate for 1 hour at room temperature with gentle mixing, the plate wells are washed, 3 times with 50 mM Tris, pH 7.5, 150 mM NaCl, 0.02% Tween-20. A 40 μl volume of 2× MSD Read Buffer (Meso Scale Discovery R92TC-1) is added to each well, and the plate is read immediately in an MSD Plate Reader (Meso Scale Discovery).

IC50 | Structure (SMILES)
1 nM | CCOc1cc2nc(C[C@H]3CCOC3)cn2cc1C(=O)Nc1cccc(C(F)F)n1 (single isomer, unassigned) [Example 64]
9 nM | COc1cccc(NC(=O)c2cn3cc(C4CC(OC)C4)nc3cc2OC)n1 (stereo not shown) [Example 8]
9 nM | COc1cccc(NC(=O)c2cn3cc(C4CC45CCCCO5)nc3cc2OC)n1 (stereo not shown) [Example 9]
8 nM | COc1cccc(NC(=O)c2cn3cc(CC4CCOCC4)nc3cc2OC)n1 [Example 10]
2 nM | COc1cccc(NC(=O)c2cn3cc(C4CC5(CCOC5)C4)nc3cc2OC)n1 (stereo not shown) [Example 11]
3 nM | COc1cccc(NC(=O)c2cn3cc(C4CCOCC4)nc3cc2OC)n1 [Example 21]
5 nM | COc1cccc(NC(=O)c2cn3cc(C4C5COCC54)nc3cc2OC)n1 (stereo not shown) [Example 22]
57 nM | COc1cc2nc(C3(OC)CC3)cn2cc1C(=O)Nc1cccc(C(F)(F)F)n1 [Example 34]
12 nM | COc1cc2nc(C3CCOC3)cn2cc1C(=O)Nc1cccc(C(F)(F)F)n1 (stereo not shown) [Example 35]
24 nM | COc1cc2nc(C3CC34CCOC4)cn2cc1C(=O)Nc1cccc(C(F)(F)F)n1 (stereo not shown) [Example 39]
31 nM | COc1cc2nc(CC(C)C#N)cn2cc1C(=O)Nc1cccc(C(F)(F)F)n1 (stereo not shown) [Example 42]
37 nM | COc1cc2nc(C(C)(C)CC#N)cn2cc1C(=O)Nc1cccc(C(F)(F)F)n1 [Example 46]
92 nM | COc1cccc(NC(=O)c2ccc3nc(C4CCOCC4)cn3c2)n1 [Example 47]
350 nM | O=C(Nc1ccn(C(F)F)n1)c1ccc2nc(C3CCOCC3)cn2c1 [Example 49]
8 nM | COc1cc(C(=O)Nc2cccc(C(F)(F)F)n2)cn2cc(CC3CCOC3)nc12 (stereo not shown) [Example 72]
1 nM | CCOc1cc2nc(C3CCOCC3)cn2cc1C(=O)Nc1cccc(C(F)F)n1 [Example 73]
6 nM | COc1cc(C(=O)Nc2cccc(C(F)(F)F)n2)cn2cc(C3CCOCC3)nc12 [Example 75]
1 nM | CCOc1cc2nc(CCCOC)cn2cc1C(=O)Nc1cccc(C(F)F)n1 [Example 85]
79 nM | COc1cc(C(=O)Nc2cccc(C(F)F)n2)cn2cc(C3(OC)CC3)nc12 [Example 91, N-(6-(difluoromethyl)pyridin-2-yl)-8-methoxy-2-(1-methoxycyclopropyl)imidazo[1,2-a]pyridine-6-carboxamide]
43 nM | COc1cc2nc(C3CCOCC3)cn2cc1C(=O)Nc1scnc1C [Example 105]
80 nM | COc1cc2nc(C3CCOCC3)cn2cc1C(=O)Nc1cc(F)ccc1OC(C)C [Example 106]

IC50 | Structure (SMILES)
567 nM | COc1cc2nc(C3CCOCC3)cn2cc1C(=O)NC1CCCC2C1C2(F)F (stereo not shown) [Example 117]
792 nM | COc1cc2nc(C3CCOCC3)cn2cc1C(=O)Nc1cc(Cl)c(F)c(Cl)c1 [Example 119]
18 nM | COc1cc2nc(C3CCOCC3)cn2cc1C(=O)Nc1cc(F)cc(F)c1F [Example 120]
122 nM | COc1cc2nc(C3CCOCC3)cn2cc1C(=O)NC1C2CCOC2C12CCC2 (stereo not shown) [Example 124]
660 nM | COc1cc2nc(C3CCOCC3)cn2cc1C(=O)NC1CCCC2(CC2)C1 (stereo not shown) [Example 126]
200 nM | COc1cc2nc(C3CCOCC3)cn2cc1C(=O)Nc1cc(C)cc(C)n1 [Example 127]
67 nM | CCc1ncc(F)cc1NC(=O)c1cn2cc(C3CCOCC3)nc2cc1OC [Example 128]
16 nM | COc1cc2nc(C3CCOCC3)cn2cc1C(=O)Nc1cccc(F)c1C [Example 129]
140 nM | COc1cc2nc(C3CCOCC3)cn2cc1C(=O)Nc1cccc2c1C1CCC2O1 (stereo not shown) [Example 130]
25 nM | COc1cc2nc(C3CCOCC3)cn2cc1C(=O)Nc1cccnc1C [Example 131]
34 nM | COc1cc2nc(C3CCOCC3)cn2cc1C(=O)Nc1cc(F)ccn1 [Example 132]
255 nM | COc1cc2nc(C3CCOCC3)cn2cc1C(=O)Nc1cc(Cl)cc(Cl)c1 [Example 133]
632 nM | COc1cc2nc(C3CCOCC3)cn2cc1C(=O)NC1CC(C)C1 (stereo not shown) [Example 134]
944 nM | COc1cc2nc(C3CCOCC3)cn2cc1C(=O)NC1CC(OC)c2ccccc21 (stereo not shown) [Example 136]
132 nM | COc1cc2nc(C3CCOCC3)cn2cc1C(=O)Nc1cc(F)c(F)c(F)c1 [Example 137]
65 nM | COc1cc2nc(C3CCOCC3)cn2cc1C(=O)Nc1cnsc1 [Example 138]
725 nM | COc1cc2nc(C3CCOCC3)cn2cc1C(=O)NC1CCCC(F)C1 (stereo not shown) [Example 139]
822 nM | COc1cc2nc(C3CCOCC3)cn2cc1C(=O)Nc1ccccc1CC(C)C [Example 140]
87 nM | COc1cc2nc(C3CCOCC3)cn2cc1C(=O)Nc1cccnc1C1CC1 [Example 148]
23 nM | COc1cc2nc(C3CCOCC3)cn2cc1C(=O)Nc1scnc1C(C)C [Example 150]
46 nM | COc1cc(F)cc(NC(=O)c2cn3cc(C4CCOCC4)nc3cc2OC)c1 [Example 151]

IC50 | Structure (SMILES)
23 nM | COc1cc2nc(C3CCOCC3)cn2cc1C(=O)Nc1cc(F)cc(F)c1 [Example 152]
19 nM | COc1cc2nc(C3CCOCC3)cn2cc1C(=O)Nc1cccc(C)c1C [Example 153]
147 nM | COc1cc2nc(C3CCOCC3)cn2cc1C(=O)Nc1ccns1 [Example 156]
21 nM | COc1cccc(NC(=O)c2cn3cc(C4CCOCC4)nc3cc2OC)c1 [Example 157]
20 nM | COc1cc2nc(C3CCOCC3)cn2cc1C(=O)Nc1ccc(F)c(C(F)F)c1 [Example 159]
70 nM | COc1cc2nc(C3CCOCC3)cn2cc1C(=O)Nc1cccc(OC)c1C [Example 160]
346 nM | COc1cc2nc(C3CCOCC3)cn2cc1C(=O)N[C@H]1CC[C@@H](OC)CC1 [Example 161]
688 nM | COc1cc2nc(C3CCOCC3)cn2cc1C(=O)Nc1cccc(C2CC2)c1 [Example 163]
37 nM | COc1cc2nc(C3CCOCC3)cn2cc1C(=O)Nc1cc(F)c(F)c(C(F)F)c1 [Example 164]
24 nM | COc1cc2nc(C3CCOCC3)cn2cc1C(=O)Nc1cccc(F)c1 [Example 165]
306 nM | COc1cc2nc(C3CCOCC3)cn2cc1C(=O)Nc1cc(C)cc(C)c1OC [Example 166]
73 nM | CCc1ccccc1NC(=O)c1cn2cc(C3CCOCC3)nc2cc1OC [Example 167]
845 nM | COc1cc2nc(C3CCOCC3)cn2cc1C(=O)Nc1nc(C)c(Cl)s1 [Example 171]
21 nM | COc1cc2nc(C3CCOCC3)cn2cc1C(=O)Nc1cc(F)cc(Cl)c1 [Example 172]
744 nM | COc1cc2nc(C3CCOCC3)cn2cc1C(=O)NC1CCCC(C)C1C (stereo not shown) [Example 175]
30 nM | COc1cc2nc(C3CCOCC3)cn2cc1C(=O)Nc1cc(C)cc(F)c1 [Example 176]
305 nM | COc1cc2nc(C3CCOCC3)cn2cc1C(=O)Nc1cc(C)cc(C)c1 [Example 178]
19 nM | COc1cc2nc(C3CCOCC3)cn2cc1C(=O)Nc1cccc2c1CCOC2 [Example 180]
169 nM | COc1cc2nc(C3CCOCC3)cn2cc1C(=O)Nc1ccc(F)c(F)c1C [Example 181]

Same assay, conditions: read-out: IRAK4 Biochemical Assay (10 μM ATP, 2 h) IC50, 0.1 nM IRAK4

Structure (SMILES) | IC50
COc1cccc(NC(=O)c2cn3cc(C[C@H]4CCOC4)nc3cc2OC)n1 [Example 50, (S)-7-methoxy-N-(6-methoxypyridin-2-yl)-2-((tetrahydrofuran-3-yl)methyl)imidazo[1,2-a]pyridine-6-carboxamide] | 3 nM
COc1cccc(NC(=O)c2cn3cc(C[C@@H]4CCOC4)nc3cc2OC)n1 [Example 51, (R)-7-methoxy-N-(6-methoxypyridin-2-yl)-2-((tetrahydrofuran-3-yl)methyl)imidazo[1,2-a]pyridine-6-carboxamide] | 3 nM
